# Columns and labels:
# [1] = tested on: S. aureus ATCC 106414 (VISA); assay: MIC, microdilution method (9.1); assay type: cell-based, Staphylococcus aureus; conditions: Staphylococcus aureus, read after 18 h, read-out: MIC
# Description: (§1) The microdilution method recommended by the Clinical and Laboratory Standard Institute [M07-A8, Vol. 29, No. 2] was used. The activity of indolic compounds was tested against 29 bacterial strains belonging to 17 different species and 12 different genera (Staphylococcus, Streptococcus, Enterococcus, Listeria, Bacillus, Haemophilus, Escherichia, Klebsiella, Enterobacter, Serratia, Pseudomonas, and Acinetobacter). Bacterial inocula were prepared in Mueller Hinton broth (MH2, bioMérieux, Marcy L'Etoile, France), supplemented with 10% sheep blood for fastidious species (i.e., Streptococcus pneumoniae and Haemophilus influenzae). They were dispensed in 96 well microtiter plates (5×10^5 CFU/ml of final inoculum). Indolic compounds were added to the wells as to obtain two-fold serial concentrations (0.50-128 mg/L of final concentrations). Plates were incubated at 37° C. in ambient air, or at 37° C. in 5% CO2 enriched atmosphere for fastidious species. […] Drug-free cultures served as growth controls. Cultures receiving gentamicin, ciprofloxacin or cefotaxime served as positive controls.
# [2] = tested on: S. aureus ATCC 25923; assay: MIC, microdilution method (9.1); assay type: cell-based, Staphylococcus aureus; conditions: Staphylococcus aureus, ATCC25923, read after 18 h, read-out: MIC
# Description: as §1
# [3] = tested on: S. aureus ATCC 29213; assay: MIC, microdilution method (9.1); assay type: cell-based, Staphylococcus aureus; conditions: Staphylococcus aureus, ATCC29213, read after 18 h, read-out: MIC
# Description: as §1
# [4] = tested on: S. aureus ATCC 33592 (MRSA); assay: MIC, microdilution method (9.1); assay type: cell-based, Staphylococcus aureus; conditions: Staphylococcus aureus, read after 18 h, read-out: MIC
# Description: as §1
# [5] = tested on: S. aureus ATCC 6538; assay: MIC, microdilution method (9.1); assay type: cell-based, Staphylococcus aureus; conditions: Staphylococcus aureus, ATCC6538, read after 18 h, read-out: MIC
# Description: as §1
# [6] = tested on: S. aureus ATCC 9144; assay: MIC, microdilution method (9.1); assay type: cell-based, Staphylococcus aureus; conditions: Staphylococcus aureus, ATCC9144, read after 18 h, read-out: MIC
# Description: as §1
# [7] = tested on: S. aureus CIP 103428; assay: MIC, microdilution method (9.1); assay type: cell-based, Staphylococcus aureus; conditions: Staphylococcus aureus, CIP103428, read after 18 h, read-out: MIC
# Description: as §1
# [8] = tested on: S. aureus CIP 65.25 (MRSA); assay: MIC, microdilution method (9.1); assay type: cell-based, Staphylococcus aureus; conditions: Staphylococcus aureus, read after 18 h, read-out: MIC
# Description: as §1
# [9] = tested on: S. aureus CIP 65.6; assay: MIC, microdilution method (9.1); assay type: cell-based, Staphylococcus aureus; conditions: Staphylococcus aureus, CIP65, read after 18 h, read-out: MIC
# Description: as §1
# [10] = tested on: S. aureus SA-1199B; assay: MIC, microdilution method (9.1); assay type: cell-based, Staphylococcus aureus; conditions: Staphylococcus aureus, SA1199B, 18 h
# Description: as §1
# [11] = tested on: S. epidermidis ATCC 12228; assay: MIC, microdilution method (9.1); assay type: cell-based, Staphylococcus epidermidis; conditions: Staphylococcus epidermidis, ATCC12228, read after 18 h, read-out: MIC
# Description: as §1
# [12] = tested on: S. epidermidis CIP 103627; assay: MIC, microdilution method (9.1); assay type: cell-based, Staphylococcus epidermidis; conditions: Staphylococcus epidermidis, CIP103627, read after 18 h, read-out: MIC
# Description: as §1
# [13] = tested on: S. epidermidis CIP 81.55; assay: MIC, microdilution method (9.1); assay type: cell-based, Staphylococcus epidermidis; conditions: Staphylococcus epidermidis, CIP81, read after 18 h, read-out: MIC
# Description: as §1
# [14] = tested on: HCT116 (human colon tumor); assay: In vitro cytotoxicity; assay type: cell-based; conditions: read-out: % of cellular growth inhibition; for inhibition at 10 µM: HCT-116, 10^−5 M; for inhibition at 1 µM: HCT-116, 10^−6 M
# Description: (§2) In vitro cytotoxicity was assayed on three cell lines—KB (human mouth carcinoma), MCR5 (human lung fibroblast) and HCT116 (human colon tumor). Results are presented in table IV as % of cellular growth inhibition in presence of 10^−5 M and 10^−6 M of the tested bis-indolic derivatives.
# [15] = tested on: KB (human mouth carcinoma); assay: In vitro cytotoxicity; assay type: cell-based; conditions: read-out: % of cellular growth inhibition; for inhibition at 10 µM: 10^−5 M; for inhibition at 1 µM: 10^−6 M
# Description: as §2
# [16] = tested on: MRC5 (human lung fibroblast); assay: In vitro cytotoxicity; assay type: cell-based; conditions: read-out: % of cellular growth inhibition; for inhibition at 10 µM: 10^−5 M; for inhibition at 1 µM: 10^−6 M
# Description: as §2
# [17] = tested on: HCT116 (human colon tumor); assay: In vitro cytotoxicity; assay type: cell-based; conditions: HCT-116, HCT116, from 100 μM to 0.005 μM in DMSO, duplicate
# [18] = tested on: S. pneumoniae ATCC 6303; assay: MIC, microdilution method (9.1); assay type: cell-based, Streptococcus pneumoniae; conditions: Streptococcus pneumoniae, ATCC6303, 10% sheep blood, 5% CO2, 18 h, read-out: MIC
# Description: as §1
# [19] = tested on: S. agalactiae (group B) ATCC 12400; assay: MIC, microdilution method (9.1); assay type: cell-based, Streptococcus agalactiae; conditions: Streptococcus agalactiae, ATCC12400, 18 h, read-out: MIC
# Description: as §1
# [20] = tested on: S. pyogenes (group A) CIP 104226; assay: MIC, microdilution method (9.1); assay type: cell-based, Streptococcus pyogenes; conditions: Streptococcus pyogenes, CIP104226, 18 h, read-out: MIC
# Description: as §1
# [21] = tested on: S. mitis CIP 103335; assay: MIC, microdilution method (9.1); assay type: cell-based, Streptococcus mitis; conditions: Streptococcus mitis, CIP103335, 18 h, read-out: MIC
# Description: as §1
# [22] = tested on: E. faecium CIP 54.32; assay: MIC, microdilution method (9.1); assay type: cell-based, Enterococcus faecium; conditions: Enterococcus faecium, CIP54, 18 h, read-out: MIC
# Description: as §1
# [23] = tested on: E. faecalis ATCC 29212; assay: MIC, microdilution method (9.1); assay type: cell-based, Enterococcus faecalis; conditions: Enterococcus faecalis, ATCC29212, 18 h, read-out: MIC
# Description: as §1
# [24] = tested on: Acinetobacter baumanii ATCC 19606; assay: MIC, microdilution method (9.1); assay type: cell-based; conditions: Acinetobacter baumannii, ATCC19606, 18 h, read-out: MIC
# Description: as §1
# [25] = tested on: Bacillus subtilis CIP 5262; assay: MIC, microdilution method (9.1); assay type: cell-based; conditions: CIP5262, 18 h, read-out: MIC
# Description: as §1
# [26] = tested on: Enterobacter cloacae ATCC13047; assay: MIC, microdilution method (9.1); assay type: cell-based; conditions: 18 h
# Description: as §1
# [27] = tested on: Escherichia coli ATCC 25922; assay: MIC, microdilution method (9.1); assay type: cell-based; conditions: ATCC25922, 18 h
# Description: as §1
# [28] = tested on: Haemophilus influenzae ATCC 49766; assay: MIC, microdilution method (9.1); assay type: cell-based; conditions: ATCC49766; Haemophilus influenzae ATCC 49766; 10% sheep blood, 5% CO2; 18 h; read-out: MIC
# Description: as §1
# [29] = tested on: Klebsiella pneumoniae API ATCC 35657; assay: MIC, microdilution method (9.1); assay type: cell-based; conditions: ATCC35657, 18 h, read-out: MIC
# Description: as §1
# [30] = tested on: Listeria innocua CIP 80.11; assay: MIC, microdilution method (9.1); assay type: cell-based; conditions: CIP80, 18 h, read-out: MIC
# Description: as §1
# [31] = tested on: Pseudomonas aeruginosa CIP 5933; assay: MIC, microdilution method (9.1); assay type: cell-based; conditions: CIP5933, 18 h, read-out: MIC
# Description: as §1
# [32] = tested on: S. pneumoniae ATCC 49619; assay: MIC, microdilution method (9.1); assay type: cell-based; conditions: Streptococcus pneumoniae, ATCC49619, 10% sheep blood, 5% CO2, 18 h
# Description: as §1
# [33] = tested on: Serratia marcescens CIP 103551; assay: MIC, microdilution method (9.1); assay type: cell-based; conditions: CIP103551, 18 h
# Description: as §1
SMILES,MIC [1] [µg/mL],MIC [2] [µg/mL],MIC [3] [µg/mL],MIC [4] [µg/mL],MIC [5] [µg/mL],MIC [6] [µg/mL],MIC [7] [µg/mL],MIC [8] [µg/mL],MIC [9] [µg/mL],MIC [10] [µg/mL],MIC [11] [µg/mL],MIC [12] [µg/mL],MIC [13] [µg/mL],inhibition at 10 µM [14] [%],inhibition at 1 µM [14] [%],inhibition at 10 µM [15] [%],inhibition at 1 µM [15] [%],inhibition at 10 µM [16] [%],inhibition at 1 µM [16] [%],other results
"CC(C)(C)OC(=O)NCC(NC(=O)c1c[nH]c2ccccc12)c1c[nH]c2ccc(Br)cc12 (stereo not drawn) [Compound 3b, tert-Butyl (2-(5-bromo-1H-indol-3-yl)-2-(1H-indole-3-carboxamido)ethyl)carbamate]",8,8,8,8,8,8,8,8,8,8,8,8,8,30 ± 2,0,41 ± 6,0,8 ± 5,7,IC50 ([17]; first value): 15 µM; IC50 ([17]; second value): 11.2 µM
"CC(C)(C)OC(=O)NCC(NC(=O)c1c[nH]c2ccccc12)c1c[nH]c2cc(Br)ccc12 (stereo not drawn) [Compound 3d, tert-Butyl (2-(6-bromo-1H-indol-3-yl)-2-(1H-indolyl-3-carboxamido)ethyl)carbamate]",8,8,8,8,8,8,8,8,8,8,16,16,16,73 ± 3,9,67 ± 3,0,73 ± 6,0,MIC [18]: 64 µg/mL; MIC [19]: 64 µg/mL; MIC [20]: 64 µg/mL; MIC [21]: 64 µg/mL; MIC [22]: 64 µg/mL; MIC [23]: > 128 µg/mL; MIC [24]: > 128 µg/mL; MIC [25]: 64 µg/mL; MIC [26]: > 128 µg/mL; MIC [27]: > 128 µg/mL; MIC [28]: 64 µg/mL; MIC [29]: > 128 µg/mL; MIC [30]: 32 µg/mL; MIC [31]: > 128 µg/mL; MIC [32]: 64 µg/mL; MIC [33]: > 128 µg/mL
"CC(C)(C)OC(=O)NCC(NC(=O)c1c[nH]c2cc(Br)ccc12)c1c[nH]c2ccccc12 (stereo not drawn) [Compound 3e, tert-Butyl (2-(1H-indol-3-yl)-2-(6-bromo-1H-indolyl-3-carboxamido)ethyl)carbamate]",8,16,8,32,8,8,8,8,16,8,8,128,8,92 ± 1,2,99 ± 1,0,92 ± 6,0,–
